Results from US20210315893A1 (Galapagos NV, priority 2017, published 2021).

Columns and labels:
[1] = molecular target: T1, human GPCR sphingosine 1-phosphate receptor 2 (Homo sapiens, UniProt O95136); assay: S1PR2 antagonist Ca2+ flux assay; type: cell-based; conditions: antagonist mode, CHO-S1PR2 cells, S1P at EC80, Ca2+ fluorescence; read-out: S1P2 EC50 (nM), S1P2 antagonist EC50
T1 construct: host or cells: CHO
Description: Triggering of S1PR2 by administration of Sphingosine-1-phosphate leads to a transient increase in intracellular Ca^2+. The Ca^2+ flux assays are measuring the release of Ca^2+ intracellularly by use of a Ca^2+ sensitive fluorescent dye. The assay is firstly run in agonist mode (incubation of compounds alone) to ensure that the Ca^2+ released measured is not caused by the test compound having an agonistic effect. Then the assay is continued in antagonist mode (Sphingosine-1-Phosphate added to incubated medium containing the test compounds).
CHO cells stably overexpressing human GPCR sphingosine 1-phosphate receptor 2 (CHO-S1PR2 Perkin Elmer; ES-594-A) are seeded from a frozen stock in 384 wells sterile microplates (50 μL; 7,500 cells/well) and are incubated overnight at 37° C. and 5% CO2. The next day cells are washed twice with starvation medium (F-12 Ham's medium containing 0.1% BSA (Fatty acid free: FAF)) and left in 25 μL starvation medium for 1 h at 37° C., 5% CO2. After this starvation cells are incubated with 25 μL buffer containing the Ca^2+-sensitive fluorescent dye (0.5 mg Fluo8+125 mg Allura Red in 100 mL of 1% DMSO, in HBSS+20 mM Hepes+5 mM probenecid). The cells are incubated for an additional 1 h after which 10 μL compounds, diluted in HBSS buffer with 20 mM Hepes and 0.1% BSA (FAF), are added to the cells and intracellular Ca2+ changes are immediately measured by reading fluorescence during 3 min (FDSS/pCELL reader). The ratio of the maximal fluorescence over the background fluorescence before compound injection is used to determine compound response.
After readout of the agonist activity, the plates are incubated for 15 min at 37° C. and 5% CO2. Then, cells are stimulated with 10 μL Sphingosine-1-Phosphate (S1P) (Avanti Polar lipids-860492P) at its EC80 concentration. Intracellular Ca2+ changes are immediately measured by reading fluorescence during 3 min (FDSS/pCELL reader). The ratio of the maximal fluorescence over the background fluorescence before compound injection is used to determine compound response.
The obtained ratio's for agonist and antagonist readout were normalized versus vehicle and EC 100 of S1P ascontrols for agonist mode and versus vehicle and […]. From these normalized data EC50 of the compounds are derived.

S1PR2 = molecular target: T2, S1PR2 (Homo sapiens, UniProt O95136); assay: S1PR2 binding assay (competition with radioactively labeled S1P, SpA); conditions: membranes from stable cell line over expressing S1PR2, SpA beads; read-out: S1P2 EC50 (nM), S1PR2 binding EC50
T2 construct: expressed in transfected cells
Description: The following assay can be used for determination of S1PR2 binding. The binding assay measures the potential to compete with radioactively labeled S1P for binding to the receptor.
The assay is performed in a96 well plate where the following reagents are added. First 50 μL compound is added into the assay plate, followed by addition of 100 μL ofa mixture consisting of membrane and Scintillation proximity Assay (SpA) beads [mixture consists […] membranes derived from stable cell line over expressing SPR2, 0.5 mg/well Polyvinyltoluene-Wheat Germ-Agglutinin (PVT-WGA) beads (Perkin Elmer, RPNQOO1)]. All components are diluted in assay buffer containing 20 mM Tris pH 7.5; 10 mM MgCl2; 100 mM NaCl; 0.4% BSA FAF; 1 mM Na3VO4) and incubated for 15 min until addition to the assay plate. Subsequently, 50 ul of radioactively labeled S1P is added to the wells (Sphingosine, D-erythro-[3-3H] 1-phosphate; ARC; ART0778). After an incubation for 2 h at room temperature, plates are centrifuged at 2000 rpm during 20 min. Plates are read on a Topcount reader (Perkin Elmer) immediately after centrifugation (readout time, 1 min/well).

HFL-1 cells [2] = assay: IL-8 production assay (S1P induced IL-8); type: cell-based; conditions: Homo sapiens, HFL1; S1P (1 μM) induced IL-8 in HFL-1 cells, starvation medium without HSA; read-out: IL8 EC50
Description: This assay is designed to test inhibitory activity of compounds on S1P induced IL-8 on HFL-1 cells, ahuman fetal lung fibroblast cell line.
Human Fetal Lung cells (HFL-1) are seeded in 96 well plates in growth medium (F12K+10% heat inactivated FBS+l1% Pen/strep). After overnight incubation at 37° C., […] cells are refreshed with starvation medium without HSA (F12K+1% FBS+1% Pen/strep). On day three, compounds are added (10 point serial dilution, 30 μM highest concentration, 1/3 dilution, 0.3% DMSO final) and plates are incubated for one h at 37° C., 5% CO2. Subsequently S1P at 1 μM final concentration is added and plates are incubated for 16 to24 h at 37° C., […] after which the supermatant was collected. IL-8 levels in the supernatant are determined with the IL-8 ELISA of R&D systems.

HFL-1 cells [3] = assay: IL8 assay in the presence of Human Serum Albumin; conditions: HFL1, read-out: HSA IL8 EC50

T1 sequence (O95136 whole entry): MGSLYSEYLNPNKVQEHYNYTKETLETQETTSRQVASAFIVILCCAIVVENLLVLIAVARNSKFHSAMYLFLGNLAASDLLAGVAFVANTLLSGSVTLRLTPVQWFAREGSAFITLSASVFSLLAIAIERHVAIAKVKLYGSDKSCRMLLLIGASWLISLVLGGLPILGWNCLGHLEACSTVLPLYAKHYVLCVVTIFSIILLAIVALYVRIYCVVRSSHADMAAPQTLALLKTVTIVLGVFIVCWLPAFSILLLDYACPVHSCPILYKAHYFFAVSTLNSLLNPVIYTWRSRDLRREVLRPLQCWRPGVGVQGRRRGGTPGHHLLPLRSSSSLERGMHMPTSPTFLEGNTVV
T2 sequence (O95136 whole entry): as above

EC50 [1] [nM]	EC50 (S1PR2) [nM]	EC50 (HFL-1 cells [2]) [nM]	EC50 (HFL-1 cells [3]) [nM]	Compound
32.4	265	177	607	N#Cc1cc2[nH]c(Cc3nn(CC(=O)N4CCC(C#N)CC4)c(=O)c4ccccc34)nc2cc1OCC(F)F [Compound 219, 2-[[3-[2-(4-cyano-1-piperidyl)-2-oxo-ethyl]-4-oxo-phthalazin-1-yl]methyl]-6-(2,2-difluoroethoxy)-3H-benzimidazole-5-carbonitrile]
17.3	53.4	9.66	54.7	COC(C)(C)CNC(=O)Cn1nc(Cc2nc3cc(OCC(F)F)c(C#N)cc3[nH]2)c2ccccc2c1=O [Compound 182, 2-[4-[[6-cyano-5-(2,2-difluoroethoxy)-1H-benzimidazol-2-yl]methyl]-1-oxo-phthalazin-2-yl]-N-(2-methoxy-2-methyl-propyl)acetamide]
50.2	165	74.5	80.4	COCCNC(=O)Cn1nc(Cc2nc3cc(C#N)c(OCC(F)F)cc3[nH]2)c2ccccc2c1=O [Compound 187, 2-[4-[[5-cyano-6-(2,2-difluoroethoxy)-1H-benzimidazol-2-yl]methyl]-1-oxo-phthalazin-2-yl]-N-(2-methoxyethyl)acetamide]
≥ 19800	3620	2990	2630	CN(C)[C@@H]1CCN(C(=O)Cn2nc(Cn3cc4cc(OCC(F)F)c(C#N)cc4n3)c3ccccc3c2=O)C1 [Compound 206]
8.77	93.7	10.6	103	N#Cc1cc2nc(Cc3nn(CC(=O)N4CCOCC4)c(=O)c4c3CCCC4)[nH]c2cc1OCC(F)(F)F [Compound 200, 2-[[3-(2-morpholino-2-oxo-ethyl)-4-oxo-5,6,7,8-tetrahydrophthalazin-1-yl]methyl]-6-(2,2,2-trifluoroethoxy)-1H-benzimidazole-5-carbonitrile]
3.02	22.4	4.55	27	O=C(O)c1nn(Cc2nc3cc(OCC4CC4)c(C(F)(F)F)cc3[nH]2)c2ccccc2c1=O [Compound 104, (1-[[5-(cyclopropylmethoxy)-6-(trifluoromethyl)-1H-benzimidazol-2-yl]methyl]-4-oxocinnoline-3-carboxylic acid)]
677	581	591	1120	O=c1c2ccccc2c(Cc2nc3cc(Cl)c(OC(F)(F)F)cc3[nH]2)nn1CC1CNC1 [Compound 61, 2-(azetidin-3-ylmethyl)-4-[[6-chloro-5-(trifluoromethoxy)-1H-benzimidazol-2-yl]methyl]phthalazin-1-one]
13200	7680	2640	9070	N#Cc1cc2nn(Cc3nn(CC(=O)N4CCOCC4)c(=O)c4ccccc34)cc2cc1OCC(F)F [Compound 205, 5-(2,2-difluoroethoxy)-2-[[3-(2-morpholino-2-oxo-ethyl)-4-oxo-phthalazin-1-yl]methyl]indazole-6-carbonitrile]
2240	4520	1360	10000	O=C(O)C1(Cn2nc(Cc3nc4cc(Cl)c(OC(F)(F)F)cc4[nH]3)c3ccccc3c2=O)CC1 [Compound 47, 1-[[4-[[5-chloro-6-(trifluoromethoxy)-1H-benzimidazol-2-yl]methyl]-1-oxo-phthalazin-2-yl]methyl]cyclopropanecarboxylic acid]
119	159	5.39	28	N#Cc1cc2nc(Cc3nn(CC(=O)O)c(=O)c4ccccc34)[nH]c2cc1OCC(F)F [Compound 139]
2.32	3.84	0.137	2.03	O=C(O)Cc1nn(Cc2nc3cc(OCC4CC4)c(Br)cc3[nH]2)c2ccccc2c1=O [Compound 109, 2-[1-[[6-bromo-5-(cyclopropylmethoxy)-1H-benzimidazol-2-yl]methyl]-4-oxo-cinnolin-3-yl]acetic acid]
		4.65	79.9	CCOc1cc2[nH]c(Cc3nn(CC(=O)N4CCOCC4)c(=O)c4ccccc34)nc2cc1Cl [Compound 165, 4-[(5-chloro-6-ethoxy-1H-benzimidazol-2-yl)methyl]-2-(2-morpholino-2-oxo-ethyl)phthalazin-1-one]
52.6	320	102	325	CN(CCS(C)(=O)=O)C(=O)Cn1nc(Cc2nc3cc(OCC(F)F)c(C#N)cc3[nH]2)c2ccccc2c1=O [Compound 220, 2-[4-[[6-cyano-5-(2,2-difluoroethoxy)-1H-benzimidazol-2-yl)methyl]-1-oxo-phthalazin-2-yl]-N-methyl-N-(2-methylsulfonylethyl)acetamide]
		12.4	57.2	CCOc1cc2[nH]c(Cc3nn(CC(=O)O)c(=O)c4ccccc34)nc2cc1Cl [compound 6, 2-[4-[(5-chloro-6-ethoxy-1H-benzimidazol-2-yl)methyl]-1-oxo-phthalazin-2-yl]acetic acid]
47.9		133	1050	CC(C)(C)COc1cc2[nH]c(Cc3nn(CC(=O)N4CCOCC4)c(=O)c4ccccc34)nc2cc1Cl [Compound 160, 4-[[5-chloro-6-(2,2-dimethylpropoxy)-1H-benzimidazol-2-yl]methyl]-2-(2-morpholino-2-oxo-ethyl)phthalazin-1-one]
11600		2660	2350	N#Cc1cc2nc(Cc3nn(CC(=O)N4CCOCC4)c(=O)c4ccccc34)cn2cc1OCC(F)F [Compound 256, 6-(2,2-difluoroethoxy)-2-[[3-(2-morpholino-2-oxo-ethyl)-4-oxo-phthalazin-1-yl]methyl]imidazo[1,2-a]pyridine-7-carbonitrile]
120		200	112	N#Cc1cc2[nH]c(Cc3nn(CC(=O)N4CC(O)(C5CC5)C4)c(=O)c4ccccc34)nc2cc1OCC(F)F [Compound 215, 2-[[3-[2-(3-cyclopropyl-3-hydroxy-azetidin-1-yl)-2-oxo-ethyl]-4-oxo-phthalazin-1-yl)methyl]-6-(2,2-difluoroethoxy)-3H-benzimidazole-5-carbonitrile]

Compound	EC50 [1] [nM]	EC50 (S1PR2) [nM]	EC50 (HFL-1 cells [2]) [nM]	EC50 (HFL-1 cells [3]) [nM]
CC(C)COc1cc2[nH]c(Cc3nn(CC(=O)N4CCOCC4)c(=O)c4ccccc34)nc2cc1Cl [Compound 173, 4-[(5-chloro-6-isobutoxy-1H-benzimidazol-2-yl)methyl]-2-(2-morpholino-2-oxo-ethyl)phthalazin-1-one]	16		2.4	3.47
